From PMC2651907, “ARC (NSC 188491) has identical activity to Sangivamycin (NSC 65346) including inhibition of both P-TEFb and PKC” (2009)

Target: T1, P-TEFb (cdk9/cyclin T1) (Homo sapiens, UniProt P50750)
T1 construct: recombinant P-TEFb (cdk9/cyclin T1); with cyclin T1
Assay: […]-ATP kinase assay with PDKtide, recombinant P-TEFb
Type: biochemical

T1 sequence (P50750 whole entry): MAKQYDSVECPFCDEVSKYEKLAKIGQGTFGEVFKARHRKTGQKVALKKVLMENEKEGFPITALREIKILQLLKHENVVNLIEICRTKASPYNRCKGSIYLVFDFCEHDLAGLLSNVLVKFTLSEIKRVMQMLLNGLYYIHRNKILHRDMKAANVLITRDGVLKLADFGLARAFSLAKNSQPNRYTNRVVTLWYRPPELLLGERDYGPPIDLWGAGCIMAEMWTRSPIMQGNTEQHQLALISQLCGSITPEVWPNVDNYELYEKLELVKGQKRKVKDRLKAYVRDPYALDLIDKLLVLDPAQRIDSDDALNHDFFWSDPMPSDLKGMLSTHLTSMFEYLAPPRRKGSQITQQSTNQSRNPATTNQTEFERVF
T1 sequence (O60563 whole entry partner): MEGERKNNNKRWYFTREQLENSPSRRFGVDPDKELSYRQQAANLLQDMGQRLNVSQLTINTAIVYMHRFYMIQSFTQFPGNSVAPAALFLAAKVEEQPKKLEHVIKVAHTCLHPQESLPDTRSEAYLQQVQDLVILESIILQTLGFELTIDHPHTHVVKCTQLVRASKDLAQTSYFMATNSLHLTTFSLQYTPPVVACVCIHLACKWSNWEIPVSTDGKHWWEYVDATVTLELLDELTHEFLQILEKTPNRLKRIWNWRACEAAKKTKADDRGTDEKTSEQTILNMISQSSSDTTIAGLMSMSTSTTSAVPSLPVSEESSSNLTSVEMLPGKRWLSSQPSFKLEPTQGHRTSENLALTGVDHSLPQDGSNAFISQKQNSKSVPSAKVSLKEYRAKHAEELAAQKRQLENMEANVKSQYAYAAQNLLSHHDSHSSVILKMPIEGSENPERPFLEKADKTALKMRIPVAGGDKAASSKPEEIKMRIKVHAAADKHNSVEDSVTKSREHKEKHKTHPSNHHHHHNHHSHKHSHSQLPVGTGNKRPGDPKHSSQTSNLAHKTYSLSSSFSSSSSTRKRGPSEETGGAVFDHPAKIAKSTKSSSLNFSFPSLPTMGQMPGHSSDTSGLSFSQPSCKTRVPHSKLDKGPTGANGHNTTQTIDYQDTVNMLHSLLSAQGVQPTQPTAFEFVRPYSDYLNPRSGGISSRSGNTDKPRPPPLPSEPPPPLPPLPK

SMILES | 32P-ATP kinase assay with PDKtide, recombinant P-TEFb
NC(=O)c1cn([C@@H]2O[C@H](CO)[C@@H](O)[C@H]2O)c2ncnc(N)c12 [sangivamycin] | ARC sangivamycin and toyocamycin prevent recombinant P-TEFb from phosphorylating substrate peptide (Fig. 4E)
NNc1c(C(N)=O)c2c(N)ncnc2n1[C@@H]1O[C@H](CO)[C@@H](O)[C@H]1O [ARC, 4-amino-6-hydrazino-7-β-d-ribofuranosyl-7H-pyrrolo-(2,3-d)-pyrimidine-5-carboxamide] | ARC sangivamycin and toyocamycin prevent recombinant P-TEFb from phosphorylating substrate peptide (Fig. 4E)
N#Cc1cn([C@@H]2O[C@H](CO)[C@@H](O)[C@H]2O)c2ncnc(N)c12 [toyocamycin] | ARC sangivamycin and toyocamycin prevent recombinant P-TEFb from phosphorylating substrate peptide (Fig. 4E)
